Patent US10426728B2, “Synergistic liposomal formulation for the treatment of cancer” (priority 2013, dated 2019)
Counter-ions that a name gives are not always drawn.

What was measured:
U937 cells = assay type: cell-based, human; settings: 7 μg/ml free CPT, 2 h
Experimental: (§1) Murine melanoma cell line B16F10, colorectal adenocarcinoma SW480 cell line, human colon carcinoma HCT116 cell line, rat brain astrocytes and rat C6 glioma cell lines were maintained in Dulbecco Modified Eagle Medium (DMEM) supplemented with 10% fetal bovine serum, sodium pyruvate, 2 mM L-glutamine, penicillin, and streptomycin. Murine macrophage cell line RAW 264.7, MOLT-4 cell line (derived from human acute lymphoblastic leukemia), human leukemia cell lines K-562 and human lymphoma cell line U-937 were maintained in RPMI 1640 medium supplemented with 10% fetal bovine serum, sodium pyruvate, 2 mM L-glutamine, penicillin, and streptomycin. The cells were incubated at 37° C. in a humidified atmosphere of 5% CO2 in air (10). The Ehrlichs ascites carcinoma cells (EAC) were maintained in vivo in Swiss albino mice, by intraperitoneal (i.p.) transplantation of 2×10^6 cells/mouse every 15 days. Cells were obtained from the peritoneal fluid after 15 days, washed in 0.2M PBS and resuspended in RPMI medium supplemented with 10% FBS.
(§2) Inhibition of 3-(4, 5-dimethylthiozol-2-yl)-2, 5-diphenyltetrazolium bromide (MTT) reduction to insoluble formazan by mitochondrial dehydrogenase was used as a viability parameter for the cells and compared with untreated control. […] The reduced formazan was solubilised in DMSO and plates were analyzed by determining the A550 on Thermo [sequence]

SW480 cells = test: MTT viability assay; assay type: cell-based, human; settings: 7 μg/ml free CPT, 2 h
Experimental: as §1, §2

B16F10 cells [1] = test: JC-1 mitochondrial membrane potential flow cytometry; assay type: cell-based, murine; settings: 7 μg/ml of free CPT, 2 h
Experimental: Supernatant was carefully removed. 0.5 ml of freshly prepared 5,5′,6,6′-tetrachloro-[…] Iodide (JC-1) working solution containing 1:100 JC-1 stain was added to each pellet. The pellets were resuspended. Cells were incubated in JC-1 working solution for 10-15 min at 37° C. in a CO2 incubator. Cells were washed twice following incubation. Cells were then analyzed by flow cytometry. (BD™ MitoScreen Flow Cytometry Mitochondrial Membrane Potential Detection Kit) (33).

B16F10 cells [2] = assay type: cell-based, murine; settings: 2 h
Experimental: Murine melanoma cell line B16F10, colorectal adenocarcinoma SW480 cell line, human colon carcinoma HCT116 cell line, rat brain astrocytes and rat C6 glioma cell lines were maintained in Dulbecco Modified Eagle Medium (DMEM) supplemented with 10% fetal bovine serum, sodium pyruvate, 2 mM L-glutamine, penicillin, and streptomycin. […] The cells were incubated at 37° C. in a humidified atmosphere of 5% CO2 in air (10).
Inhibition of 3-(4, 5-dimethylthiozol-2-yl)-2, 5-diphenyltetrazolium bromide (MTT) reduction to insoluble formazan by mitochondrial dehydrogenase was used as a viability parameter for the cells and compared with untreated control. After treatment with drug for 2 or 4 h the cells were washed with 20 mM PBS and incubated with 2 mg/ml MTT solution for 4 h at 37° C.

rat C6 glioma cells = settings: 7 μg/ml free CPT, 2 h
Experimental: as §1, §2

[3] = system: human PBMC of healthy donors; assay type: cell-based; settings: 7 μg/ml free CPT, 2 h
Experimental: For isolation of human peripheral blood mononuclear cells from healthy donors (PBMC) heparinized human peripheral blood was obtained from healthy donors and the mononuclear cells (PBMC) were isolated by the density sedimentation on Histopaque-1077 (400×g, 30 min at RT) and washed and resuspended in RPMI 1640 supplemented with 10% FCS, 2 mM Lglutamine, penicillin (100 U/ml), and streptomycin (100 mg/ml) (30). […] Inhibition of 3-(4, 5-dimethylthiozol-2-yl)-2, 5-diphenyltetrazolium bromide (MTT) reduction to insoluble formazan by mitochondrial dehydrogenase was used as a viability parameter for the cells and compared with untreated control. After treatment with drug for 2 or 4 h the cells were washed with 20 mM PBS and incubated with 2 mg/ml MTT solution for 4 h at 37° C. The reduced formazan was solubilised in DMSO and plates were analyzed by determining the A550 on Thermo [sequence]

[4] = system: Ehrlichs ascites carcinoma cells (EAC); assay type: cell-based, mouse; settings: 7 μg/ml free CPT, 2 h
Experimental: as §1, §2

[5] = system: B16F10, K562, U937, rat C6 glioma, EAC, MOLT4 and SW480 cell lines; test: In vitro EC50 of free anticancer drugs by MTT; assay type: cell-based; settings: free drug, 2 h treatment
Experimental: The cells were treated with PC:SA liposome (20-350 μg/ml with respect to PC) or free DOX (500-1000 μg/ml) and free CAMPTOSAR (irinotecan hydrochloride, which is a semisynthetic derivative of camptothecin) (500-10,000 μg/ml). After 2 h of treatment effects on cell viability were determined by MTT assay. EC50 values were determined by nonlinear regression analysis of concentration-response data.

| Compound | killing effect (U937 cells) | killing effect (SW480 cells) | green fluorescing monomers (JC-1) (B16F10 cells [1]) | viability (B16F10 cells [2]; 7 μg/ml free CPT) | cells survived (B16F10 cells [2]; free CPT 3.9 μg/ml (REV equivalent) and 6.1 μg/ml (DRV equivalent)) | viability (rat C6 glioma cells) | killing effect [3] | viability [4] | EC50 [5] |
| --- | --- | --- | --- | --- | --- | --- | --- | --- | --- |
| CC[C@@]1(O)C(=O)OCc2c1cc1n(c2=O)Cc2cc3ccccc3nc2-1 [CPT, camptothecin] | no killing effect | no killing effect | 7% | 38% | about 38% | 71% | no killing effect | 56% |  |
| CCc1c2c(nc3ccc(OC(=O)N4CCC(N5CCCCC5)CC4)cc13)-c1cc3c(c(=O)n1C2)COC(=O)[C@]3(O)CC [irinotecan hydrochloride] |  |  |  |  |  |  |  |  | 800 to 5000 mg/L |
